Experimental data: the supplement of paper PMC11061612

Experiments:
Test in all cases: Bliss excess, mean over the matrix (fraction); higher = more synergy
[1] = system: PFSK-1 (Other Solid Carcinomas)
Outline: (§1)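 Cell lines in DMEM/F12 or RPMI with 10% FBS were plated in 1536-well plates, held 24 hours at 37°C, 5% CO2, then given two-drug dose matrices for 72 hours (DMSO typically 0.2%). Viability was read by CellTiter-Glo 2.0 luminescence and scaled as inhibition from 0 (vehicle wells) to 1 (blank wells). Combination Emax is the second-highest inhibition in the matrix; Bliss excess is observed combination effect minus expected EA + EB − EA·EB, EA and EB being single-agent effects.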

[2] = system: KU-19-19 (Bladder Carcinoma)
Outline: as §1

[3] = system: ASH-3 (Thyroid Gland Carcinoma)
Outline: as §1

[4] = system: LC4-1 (B-Lymphoblastic Leukemia)
Outline: as §1

[5] = system: KYSE-150 (Esophageal Squamous Cell Carcinoma)
Outline: as §1

[6] = system: KINGS-1 (Low Grade Glioma)
Outline: as §1

IMR-5 (Neuroblastoma) = system: IMR-5 (Neuroblastoma)
Outline: as §1

[7] = system: BV-173 (Chronic Myelogenous Leukemia)
Outline: as §1

EW-13 (Ewing's Sarcoma) = system: EW-13 (Ewing's Sarcoma)
Outline: as §1

A704 (Kidney Carcinoma) = system: A704 (Kidney Carcinoma)
Outline: as §1

[8] = system: EBC-1 (Squamous Cell Lung Carcinoma)
Outline: as §1

[9] = system: NCI-H1573 (Lung Adenocarcinoma)
Outline: as §1

[10] = system: VMRC-LCD (Lung Adenocarcinoma)
Outline: as §1

GI-1 (Glioblastoma) = system: GI-1 (Glioblastoma)
Outline: as §1

SMILES	Bliss excess [1]	Bliss excess [2]	Bliss excess [3]	Bliss excess [4]	Bliss excess [5]	Bliss excess [6]	Bliss excess (IMR-5 (Neuroblastoma))	Bliss excess [7]	Bliss excess (EW-13 (Ewing's Sarcoma))	Bliss excess (A704 (Kidney Carcinoma))	Bliss excess [8]	Bliss excess [9]	Bliss excess [10]	Bliss excess (GI-1 (Glioblastoma))
CN(CCO)CC[C@H](CSc1ccccc1)Nc1ccc(S(=O)(=O)NC(=O)c2ccc(N3CCC([C@@H](O)c4ccccc4-c4ccc(Cl)cc4)CC3)cc2)cc1S(=O)(=O)C(F)(F)F [AZD4320] + CCN(CCO)CCCOc1ccc2c(Nc3cc(CC(=O)Nc4cccc(F)c4)[nH]n3)ncnc2c1 [AZD2811] (first compound max 1 µM, 7x7, partner max 1 µM)	-0.0176	0.0207	0.0577	-0.0049	0.007	0.006	-0.0229	-0.0566	-0.0076	-0.0659	0.0178	-0.0135	-0.0741	0.144
CC(=O)c1c(C)c2cnc(Nc3ccc(N4CCNCC4)cn3)nc2n(C2CCCC2)c1=O [Palbociclib] + Cc1c2c(nn1C)CSCc1cc(n(C)n1)CSc1cc(c3ccccc3c1)OCCCc1c(C(=O)O)n(C)c3c-2c(Cl)ccc13 [AZD5991] (first compound max 10 µM, 7x7, partner max 1 µM)	-0.0471	-0.0215	-0.0324	-0.0081	-0.0278	0.0346	0.0155	-0.105	-0.0346	-0.0629	0.0345	-0.0539	-0.0288	-0.0123
CN(CCO)CC[C@H](CSc1ccccc1)Nc1ccc(S(=O)(=O)NC(=O)c2ccc(N3CCC([C@@H](O)c4ccccc4-c4ccc(Cl)cc4)CC3)cc2)cc1S(=O)(=O)C(F)(F)F [AZD4320] + C1CN(CCC1(C(=O)N[C@@H](CCO)C2=CC=C(C=C2)Cl)N)C3=NC=NC4=C3C=CN4 [Capivasertib] (first compound max 1 µM, 7x7, partner max 3 µM)	0.078	-0.0394	-0.0192	0.0319	-0.0579	-0.103	0.154	-0.0135	-0.0633	-0.1	-0.0181	0.0699	-0.0521	0.0172
COc1nnc2ccc(N3CCC(c4ccc(OCCN5CCN(C)C(=O)[C@H]5C)cc4)CC3)nn12 [AZD5153] + C[C@@H]1COCCN1C2=NC(=NC(=C2)C3(CC3)[S@](=N)(=O)C)C4=C5C=CNC5=NC=C4 [AZD6738] (first compound max 1 µM, 7x7, partner max 10 µM)	-0.0115	-0.0645	-0.025	-0.0721	-0.0482	-0.0124	0.0121	-0.0506	0.0682	-0.0278	0.0351	0.0531	0.0235	0.0053
CN(CCO)CC[C@H](CSc1ccccc1)Nc1ccc(S(=O)(=O)NC(=O)c2ccc(N3CCC([C@@H](O)c4ccccc4-c4ccc(Cl)cc4)CC3)cc2)cc1S(=O)(=O)C(F)(F)F [AZD4320] + C[C@@H]1COCCN1C2=NC(=NC(=C2)C3(CC3)[S@](=N)(=O)C)C4=C5C=CNC5=NC=C4 [AZD6738] (first compound max 1 µM, 7x7, partner max 10 µM)	0.0409	-0.0381	-0.0011	0.0481	-0.0536	-0.0806	0.102	-0.0453	-0.0009	-0.0084	-0.015	-0.0524	-0.0764	-0.0203
NC1(C(=O)N[C@@H](CCO)c2ccc(Cl)cc2)CCN(c2ncnc3[nH]ccc23)CC1 [Capivasertib] + CC(C)n1c(=O)n(C)c2cnc3cc(F)c(-c4ccc(OCCCN5CCCCC5)nc4)cc3c21 [AZD1390] (first compound max 10 µM, 7x7, partner max 0.3 µM)	-0.0598	-0.0939	-0.0478	0.0461	0.0164	-0.0398	-0.0487	-0.0639	-0.024	-0.0703	-0.0046	-0.111	-0.0297	-0.0226
Cn1cnc2c(F)c(Nc3ccc(Br)cc3Cl)c(C(=O)NOCCO)cc21 [Selumetinib] + C[C@@H]1COCCN1C2=NC(=NC(=C2)C3(CC3)[S@](=N)(=O)C)C4=C5C=CNC5=NC=C4 [AZD6738] (first compound max 10 µM, 7x7, partner max 10 µM)	-0.0535	-0.0147	0.0892	-0.0168	0.0348	0.0148	0.0151	-0.0149	-0.0267	-0.039	-0.0062	0.0488	-0.0546	-0.0338
Cc1c2c(nn1C)CSCc1cc(n(C)n1)CSc1cc(c3ccccc3c1)OCCCc1c(C(=O)O)n(C)c3c-2c(Cl)ccc13 [AZD5991] + C[C@@H]1COCCN1C2=NC(=NC(=C2)C3(CC3)[S@](=N)(=O)C)C4=C5C=CNC5=NC=C4 [AZD6738] (first compound max 1 µM, 7x7, partner max 10 µM)	0.0139	-0.0013	0.0554	0.0101	0.0556	0.0151	0.0245	-0.0537	-0.0056	-0.0522	0.039	-0.033	0.0179	-0.0238
CC1(C)CCC(CN2CCN(c3ccc(C(=O)NS(=O)(=O)c4ccc(NCC5CCOCC5)c([N+](=O)[O-])c4)c(Oc4cnc5[nH]ccc5c4)c3)CC2)=C(c2ccc(Cl)cc2)C1 [Venetoclax] + C[C@@H](Nc1cc(F)cc(F)c1)c1cc(C(=O)N(C)C)cc2c(=O)cc(N3CCOCC3)oc12 [AZD8186] (first compound max 1 µM, 7x7, partner max 3 µM)	0.0015	-0.0402	-0.0223	0.0967	-0.0281	0.0081	0.0793	-0.0477	0.0349	-0.0162	-0.0233	-0.0247	-0.0457	-0.0091
Cc1nc(Nc2ncc(C(=O)Nc3c(C)cccc3Cl)s2)cc(N2CCN(CCO)CC2)n1 [Dasatinib] + CC(=O)Nc1cccc(-n2c(=O)n(C3CC3)c(=O)c3c(Nc4ccc(I)cc4F)n(C)c(=O)c(C)c32)c1 [Trametinib] (first compound max 2 µM, 7x7, partner max 1 µM)	-0.095	0.0906	0.0994	-0.0543	-0.035	-0.0416	-0.0059	-0.179	-0.0443	0.0541	0.0399	0.0311	-0.0596	0.0396
Cc1c2c(nn1C)CSCc1cc(n(C)n1)CSc1cc(c3ccccc3c1)OCCCc1c(C(=O)O)n(C)c3c-2c(Cl)ccc13 [AZD5991] + CN(C)CCCOc1ccc(-c2ccc3ncc4c(c3c2)n(C2CCOCC2)c(=O)n4C)cn1 [AZD0156] (first compound max 1 µM, 7x7, partner max 1 µM)	0.0228	0.0263	-0.0253	-0.0177	-0.0143	0.0128	-0.0194	-0.114	-0.0024	-0.0475	0.0581	-0.0443	0.0165	0.0067
CC(=O)c1c(C)c2cnc(Nc3ccc(N4CCNCC4)cn3)nc2n(C2CCCC2)c1=O [Palbociclib] + Cn1cnc2c(F)c(Nc3ccc(Br)cc3Cl)c(C(=O)NOCCO)cc21 [Selumetinib] (first compound max 10 µM, 7x7, partner max 10 µM)	-0.0505	-0.0054	-0.0805	0.0312	0.127	-0.0272	0.0682	-0.0657	-0.0287	-0.0874	0.0982	0.0017	-0.0448	-0.0734
CN(CCO)CC[C@H](CSc1ccccc1)Nc1ccc(S(=O)(=O)NC(=O)c2ccc(N3CCC([C@@H](O)c4ccccc4-c4ccc(Cl)cc4)CC3)cc2)cc1S(=O)(=O)C(F)(F)F [AZD4320] + Cn1cnc2c(F)c(Nc3ccc(Br)cc3Cl)c(C(=O)NOCCO)cc21 [Selumetinib] (first compound max 1 µM, 7x7, partner max 3 µM)	0.057	0.0193	-0.026	0.0831	-0.0152	0.0328	0.0409	-0.018	-0.0149	-0.075	0.0478	0.0027	0.0277	0.0069
CN(CCO)CC[C@H](CSc1ccccc1)Nc1ccc(S(=O)(=O)NC(=O)c2ccc(N3CCC([C@@H](O)c4ccccc4-c4ccc(Cl)cc4)CC3)cc2)cc1S(=O)(=O)C(F)(F)F [AZD4320] + C=CCn1c(=O)c2cnc(Nc3ccc(N4CCN(C)CC4)cc3)nc2n1-c1cccc(C(C)(C)O)n1 [AZD1775] (first compound max 1 µM, partner max 1 µM)	0.0344	-0.018	0.0819	0.0369	-0.0634	0.0509	0.118	-0.0038	0.0172	0.0138	0.0187	-0.0052	-0.0459	0.0542
COc1nnc2ccc(N3CCC(c4ccc(OCCN5CCN(C)C(=O)[C@H]5C)cc4)CC3)nn12 [AZD5153] + C=CCn1c(=O)c2cnc(Nc3ccc(N4CCN(C)CC4)cc3)nc2n1-c1cccc(C(C)(C)O)n1 [AZD1775] (first compound max 1 µM, partner max 1 µM)	-0.109	-0.121	-0.024	-0.0018	-0.049	-0.0123	-0.0213	-0.0256	-0.0239	-0.0375	0.005	-0.0197	-0.0025	-0.0143
Cn1cnc2c(F)c(Nc3ccc(Br)cc3Cl)c(C(=O)NOCCO)cc21 [Selumetinib] + CC(C)n1c(=O)n(C)c2cnc3cc(F)c(-c4ccc(OCCCN5CCCCC5)nc4)cc3c21 [AZD1390] (first compound max 10 µM, 7x7, partner max 0.3 µM)	-0.0492	-0.0257	-0.0553	-0.0312	-0.0626	-0.0115	0.0128	-0.03	-0.0428	-0.0225	-0.0265	-0.0642	-0.0191	-0.0165
NC1(C(=O)N[C@@H](CCO)c2ccc(Cl)cc2)CCN(c2ncnc3[nH]ccc23)CC1 [Capivasertib] + COc1nnc2ccc(N3CCC(c4ccc(OCCN5CCN(C)C(=O)[C@H]5C)cc4)CC3)nn12 [AZD5153] (first compound max 10 µM, 7x7, partner max 1 µM)	-0.0158	0.0272	0.0231	0.002	0.0618	-0.0017	0.0285	-0.0607	0.0153	0.0204	0.0374	-0.0011	0.0154	0.0578
